Source: patent US8669271B2 (Boehringer Ingelheim International GmbH, priority 2010, dated 2014)

Target: T1, human GPR119 (Homo sapiens, UniProt Q8TDV5)
T1 construct: expression vector for human GPR119 cDNA (Acc. No. NP_848566); expressed in transfected cells
T1 sequence (Q8TDV5 1-335): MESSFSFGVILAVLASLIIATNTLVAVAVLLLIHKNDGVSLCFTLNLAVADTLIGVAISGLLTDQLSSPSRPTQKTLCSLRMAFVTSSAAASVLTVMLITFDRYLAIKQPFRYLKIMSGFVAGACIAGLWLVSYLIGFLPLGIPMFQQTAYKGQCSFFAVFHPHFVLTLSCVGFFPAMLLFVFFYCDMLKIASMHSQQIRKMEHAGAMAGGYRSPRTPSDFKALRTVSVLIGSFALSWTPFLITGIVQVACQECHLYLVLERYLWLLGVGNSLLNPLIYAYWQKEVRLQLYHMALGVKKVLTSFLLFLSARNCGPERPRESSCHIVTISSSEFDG
Assay: AlphaScreen cAMP assay in Min-6/hGPR119 cells (activation of GPR119, intracellular cAMP)
Assay type: cell-based
Settings: MIN6 cells stably transfected with human GPR119; cAMP by AlphaScreen after 45 minutes incubation at room temperature
Summary of the method: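 MIN6 cells stably expressing human GPR119, seeded 24 h before treatment; compounds applied 45 min at ~20 °C in Hepes-buffered saline pH 7.4 with 0.5 mM IBMX, 0.1% BSA, 1% DMSO final. Intracellular cAMP measured by AlphaScreen.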

Row | EC50 | Structure (SMILES)
1 | 0.153 µM | CC(C)OC(=O)N1CCC(C2Cc3cc(-c4ccc(CC(=O)NCC(C)(C)CO)cc4)ccc3O2)CC1 (stereo not shown) [Example 152]
2 | 0.025 µM | CC(C)OC(=O)N1CCC(C2Cc3cc(-c4ccc(C(=O)N(C)CC#N)cc4)ccc3O2)CC1 (stereo not shown) [Example 159]
3 | 1.71 µM | Cc1noc(C)c1-c1ccc2c(c1)CC(C1CCN(C(=O)OC(C)C)CC1)O2 (stereo not shown) [Example 106]
4 | 0.575 µM | Cn1cc(-c2cc3c(cn2)OC(C2CCN(C(=O)OC(C)(C)C)CC2)C3)cn1 (stereo not shown) [Example 68, 4-[5-(1-Methyl-1H-pyrazol-4-yl)-2,3-dihydro-furo[2,3-c]pyridin-2-yl]-piperidine-1-carboxylic acid tert-butyl ester]
5 | 0.023 µM | CC(C)(C)OC(=O)N1CCC(C2Cc3cc(-c4ccc(C#N)c(F)c4)ncc3O2)CC1 (stereo not shown) [Example 28, 4-[5-(4-Cyano-3-fluoro-phenyl)-2,3-dihydro-furo[2,3-c]hyridin-2-yl]-piperidine-1-carboxylic acid tert-butyl ester]
6 | 0.034 µM | CC(C)OC(=O)N1CCC(C2Cc3cc(-c4ccc(C(=O)NCc5ccccn5)cc4)ccc3O2)CC1 (stereo not shown) [Example 157]
7 | 0.017 µM | CC1(OC(=O)N2CCC(C3Cc4cc(-c5ccc(S(C)(=O)=O)cc5)ncc4O3)CC2)CC1 (stereo not shown) [Example 20, 4-[5-(4-Methanesulfonyl-phenyl)-2,3-dihydro-furo[2,3-c]pyridin-2-yl]-piperidine-1-carboxylic acid 1-methyl-cyclopropyl ester]
8 | 0.038 µM | COC1CN(C(=O)c2ccc(-c3ccc4c(c3)CC(C3CCN(C(=O)OC(C)C)CC3)O4)cc2)C1 (stereo not shown) [Example 145]
9 | 0.018 µM | CC(C)(C)OC(=O)N1CCC(C2Cc3cc(-c4ccc(S(C)(=O)=O)cc4F)ncc3O2)CC1 (stereo not shown) [Example 23, 4-[5-(2-Fluoro-4-methanesulfonyl-phenyl)-2,3-dihydro-furo[2,3-c]pyridin-2-yl]-piperidine-1-carboxylic acid tert-butyl ester]
10 | 0.172 µM | CC(C)(C)OC(=O)N1CCC([C@@]2(C)Cc3cc(-c4ccc(S(C)(=O)=O)cc4)ncc3O2)CC1 [Example 84, (R)-4-[5-(4-Methanesulfonyl-phenyl)-2-methyl-2,3-dihydro-furo[2,3-c]pyridin-2-yl]-piperidine-1-carboxylic acid tert-butyl ester]
11 | 0.042 µM | CC(C)OC(=O)N1CCC(C2Cc3cc(-c4ccc(S(C)(=O)=O)cc4F)ccc3O2)CC1 (stereo not shown) [Example 115]
12 | 0.007 µM | CC1(OC(=O)N2CCC(C3Cc4cc(C5=CCN(S(C)(=O)=O)CC5)ncc4O3)CC2)CC1 (stereo not shown) [Example 97, 4-[5-(1-Methanesulfonyl-1,2,3,6-tetrahydro-pyridin-4-yl)-2,3-dihydro-furo[2,3-c]pyridin-2-yl]-piperidine-1-carboxylic acid 1-methyl-cyclopropyl ester]
13 | 0.228 µM | Cc1cc(C#N)cnc1-c1ccc2c(c1)CC(C1CCN(C(=O)OC(C)C)CC1)O2 (stereo not shown) [Example 8, 4-[5-(5-Cyano-3-methyl-pyridin-2-yl)-2,3-dihydro-benzofuran-2-yl]-piperidine-1-carboxylic acid isopropyl ester]
14 | 0.009 µM | CC(C)OC(=O)N1CCC(C2Cc3cc(-c4ccc(C(=O)N5CCOCC5)cc4)ccc3O2)CC1 (stereo not shown) [Example 149]
15 | 0.094 µM | CC(C)OC(=O)N1CCC(C2Cc3cc(-c4ccc(C(=O)N5CCC(C)(O)C5)cc4)ccc3O2)CC1 (stereo not shown) [Example 143]
16 | 0.168 µM | CC(O)CCNC(=O)Cc1ccc(-c2ccc3c(c2)CC(C2CCN(C(=O)OC(C)C)CC2)O3)cc1 (stereo not shown) [Example 126]

Row | EC50 | Structure (SMILES)
17 | 0.019 µM | CC(C)(C)OC(=O)N1CCC(C2Cc3cc(N4CCN(S(C)(=O)=O)CC4)ncc3O2)CC1 (stereo not shown) [Example 90, 4-[5-(4-Methanesulfonyl-piperazin-1-yl)-2,3-dihydro-furo[2,3-c]pyridin-2-yl]-piperidine-1-carboxylic acid tert-butyl ester]
18 | 0.089 µM | CC(=O)Nc1ccc(-c2ccc3c(c2)CC(C2CCN(C(=O)OC(C)C)CC2)O3)cc1 (stereo not shown) [Example 164]
19 | 0.015 µM | CCS(=O)(=O)N1CCN(c2cc3c(cn2)OC(C2CCN(C(=O)OC(C)(C)C)CC2)C3)CC1 (stereo not shown) [Example 98]
20 | 0.009 µM | CCCS(=O)(=O)N1CCN(c2cc3c(cn2)OC(C2CCN(C(=O)OC(C)(C)C)CC2)C3)CC1 (stereo not shown) [Example 100, 4-{5-[4-(Propane-1-sulfonyl)-piperazin-1-yl]-2,3-dihydro-furo[2,3-c]pyridin-2-yl}-piperidine-1-carboxylic acid ten-butyl ester]
21 | 0.014 µM | CC(C)(C)OC(=O)N1CCC(C2(C)Cc3cc(-c4ccc(S(C)(=O)=O)cc4)ncc3O2)CC1 (stereo not shown) [Example 77, 4-[5-(4-Methanesulfonyl-phenyl)-2-methyl-2,3-dihydro-furo[2,3-c]pyridin-2-yl]-piperidine-1-carboxylic acid tert-butyl ester]
22 | 0.2 µM | CC(=O)c1ccc(-c2ccc3c(c2)CC(C2CCN(C(=O)OC(C)C)CC2)O3)cc1 (stereo not shown) [Example 104]
23 | 0.299 µM | Cc1cc([S+](C)[O-])ccc1-c1ccc2c(c1)CC(C1CCN(C(=O)OC(C)C)CC1)O2 (stereo not shown) [Example 11, 4-[5-(4-Methanesulfinyl-2-methyl-phenyl)-2,3-dihydro-benzofuran-2-yl]-piperidine-1-carboxylic acid isopropyl ester]
24 | 0.161 µM | CC(C)(C)OC(=O)N1CCC(C2Cc3cc(-c4ccnnc4)ccc3O2)CC1 (stereo not shown) [Example 50, 4-(5-Pyridazin-4-yl-2,3-dihydro-benzofuran-2-yl)-piperidine-1-carboxylic acid tert-butyl ester]
25 | 0.387 µM | CC(C)OC(=O)N1CCC(C2Cc3cc(-c4ccc5c(cnn5C)c4)ccc3O2)CC1 (stereo not shown) [Example 120]
26 | 1 µM | Cc1cc(S(C)(=O)=O)ncc1-c1ccc2c(c1)CC(C1CCN(C(=O)OC(C)C)CC1)O2 (stereo not shown) [Example 19, 4-[5-(6-Methanesulfonyl-4-methyl-pyridin-3-yl)-2,3-dihydro-benzofuran-2-yl]-piperidine-1-carboxylic acid isopropyl ester]
27 | 0.214 µM | CC(C)(C)OC(=O)N1CCC(C2Cc3nc(-c4ccc(S(C)(=O)=O)cc4)ccc3O2)CC1 (stereo not shown) [Example 13, 4-[5-(4-Methanesulfonyl-phenyl)-2,3-dihydro-furo[3,2-b]pyridin-2-yl]-piperidine-1-carboxylic acid tert-butyl ester]
28 | 0.027 µM | CC(C)(C)OC(=O)N1CCC([C@@H]2Cc3nc(-c4ccc(S(C)(=O)=O)cc4)ncc3O2)CC1 [Example 73, (S)-4-[2-(4-Methanesulfonyl-phenyl)-6,7-dihydro-furo[3,2-d]pyrimidin-6-yl]-piperidine-1-carboxylic acid tert-butyl ester]
29 | 0.082 µM | CC(C)OC(=O)N1CCC(C2Cc3cc(-c4ccc(C(=O)N(C)CCO)cc4)ccc3O2)CC1 (stereo not shown) [Example 155]
30 | 0.121 µM | Cc1cc(S(C)(=O)=O)ccc1-c1ccc2c(c1)CC(C1CCN(C(=O)OC(C)C)CC1)O2 (stereo not shown) [Example 10, 4-[5-(4-Methanesulfonyl-2-methyl-phenyl)-2,3-dihydro-benzofuran-2-yl]-piperidine-1-carboxylic acid isopropyl ester]
31 | 0.133 µM | Cn1cc(-c2cc3c(cn2)OC(C2CCN(C(=O)OC(C)(C)C)CC2)C3)ccc1=O (stereo not shown) [Example 58, 4-[5-(1-Methyl-6-oxo-1,6-dihydro-pyridin-3-yl)-2,3-dihydro-furo[2,3-c]pyridin-2-yl]-piperidine-1-carboxylic acid tert-butyl ester]
